Experimental data from ChEMBL document CHEMBL5465560, “Selectivity Literature for EUbOPEN Chemogenomic Library” (2024).

Columns and labels:
[1] = target: Fibroblast growth factor receptor 2 (Homo sapiens) (UniProt P21802); assay: Selectivity interaction (KinomeScan (DiscoverX)) EUB0001049a FGFR2; details: at 1 µM
[2] = target: Tyrosine-protein kinase Fyn (Homo sapiens) (UniProt P06241); assay: Selectivity interaction (KinomeScan (DiscoverX)) EUB0001079a FYN; details: at 1 µM
[3] = target: Sodium-dependent noradrenaline transporter (Homo sapiens, UniProt P23975); assay: Selectivity interaction (GPCR panel (PDSP screen)) EUB0001079a SLC6A2; details: at 10 µM
D(1A) dopamine receptor = D(1A) dopamine receptor (Homo sapiens, UniProt P21728); assay: Selectivity interaction (Dopamine D1 - cAMP agonist mode ) EUB0000877a DRD1
D(1A) dopamine receptor, sequence (P21728 whole entry): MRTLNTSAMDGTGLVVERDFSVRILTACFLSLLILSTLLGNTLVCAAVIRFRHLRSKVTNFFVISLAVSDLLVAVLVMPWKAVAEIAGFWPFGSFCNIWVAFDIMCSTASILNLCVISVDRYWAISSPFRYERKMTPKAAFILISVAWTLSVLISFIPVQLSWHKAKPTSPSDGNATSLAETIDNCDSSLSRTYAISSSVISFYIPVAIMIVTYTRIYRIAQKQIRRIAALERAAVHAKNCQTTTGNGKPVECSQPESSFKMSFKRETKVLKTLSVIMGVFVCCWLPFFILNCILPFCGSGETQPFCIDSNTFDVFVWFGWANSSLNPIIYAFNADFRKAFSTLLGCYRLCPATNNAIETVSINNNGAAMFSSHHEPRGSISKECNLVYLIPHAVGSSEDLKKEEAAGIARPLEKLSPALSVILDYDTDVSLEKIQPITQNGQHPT

[4] = target: Ephrin type-A receptor 7 (Homo sapiens) (UniProt Q15375); assay: Selectivity interaction (Kinase panel (DSF assay)) EUB0001559a EPHA7
[5] = target: PH-interacting protein (Homo sapiens) (UniProt Q8WWQ0); assay: Selectivity interaction (Bromodomain panel (DSF asssay)) EUB0000270b PHIP
[6] = system: Tyrosine-protein kinase ABL1 (Homo sapiens), P00519 [T315I]; assay: Selectivity interaction (Ambit KINOMEscan and KiNATiv profiling in Jurkat cells) EUB0000090b ABL1; type: cell-based; details: at 1 µM
SRSF protein kinase 1 = SRSF protein kinase 1 (Homo sapiens, UniProt Q96SB4); assay: Selectivity interaction (KinomeScan (DiscoverX)) EUB0000045b SRPK1
SRSF protein kinase 1, sequence (Q96SB4 whole entry): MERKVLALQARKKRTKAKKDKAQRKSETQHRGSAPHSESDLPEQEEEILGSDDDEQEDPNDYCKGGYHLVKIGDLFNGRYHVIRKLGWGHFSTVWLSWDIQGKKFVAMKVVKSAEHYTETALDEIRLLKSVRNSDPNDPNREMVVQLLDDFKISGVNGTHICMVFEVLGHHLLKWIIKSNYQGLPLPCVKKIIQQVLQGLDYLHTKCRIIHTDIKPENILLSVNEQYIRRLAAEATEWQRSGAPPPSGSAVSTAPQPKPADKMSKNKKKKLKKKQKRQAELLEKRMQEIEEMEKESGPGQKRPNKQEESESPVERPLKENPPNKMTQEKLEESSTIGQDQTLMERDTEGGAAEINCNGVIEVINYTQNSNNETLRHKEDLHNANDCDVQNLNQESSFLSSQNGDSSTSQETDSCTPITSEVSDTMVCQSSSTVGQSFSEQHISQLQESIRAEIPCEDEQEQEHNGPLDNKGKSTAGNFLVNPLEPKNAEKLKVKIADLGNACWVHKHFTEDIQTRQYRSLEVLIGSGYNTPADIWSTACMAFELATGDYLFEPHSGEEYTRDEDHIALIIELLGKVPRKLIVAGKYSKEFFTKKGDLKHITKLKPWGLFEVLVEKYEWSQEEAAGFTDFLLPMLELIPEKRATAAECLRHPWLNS

[7] = target: MAP kinase-interacting serine/threonine-protein kinase 1 (Homo sapiens) (UniProt Q9BUB5); assay: Selectivity interaction (KinomeScan (DiscoverX)) EUB0000045b MKNK1
MAP kinase-interacting serine/threonine-protein kinase 1 (Homo sapiens), sequence (Q9BUB5 whole entry, looked up): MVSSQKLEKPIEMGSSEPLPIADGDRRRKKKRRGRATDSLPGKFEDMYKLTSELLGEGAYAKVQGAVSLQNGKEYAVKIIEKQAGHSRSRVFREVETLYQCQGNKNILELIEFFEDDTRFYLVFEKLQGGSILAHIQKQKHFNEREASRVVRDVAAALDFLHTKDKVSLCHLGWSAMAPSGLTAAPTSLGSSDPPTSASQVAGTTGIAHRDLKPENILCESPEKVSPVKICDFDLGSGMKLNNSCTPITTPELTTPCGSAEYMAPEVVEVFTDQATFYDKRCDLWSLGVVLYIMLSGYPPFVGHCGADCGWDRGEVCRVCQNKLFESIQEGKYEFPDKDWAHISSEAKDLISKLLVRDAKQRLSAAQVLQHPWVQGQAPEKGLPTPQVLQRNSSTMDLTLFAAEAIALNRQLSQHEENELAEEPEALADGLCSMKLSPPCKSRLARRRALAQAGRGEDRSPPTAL

[8] = target: Homeodomain-interacting protein kinase 1 (Homo sapiens, UniProt Q86Z02); assay: Selectivity interaction (KinomeScan (DiscoverX)) EUB0000618a HIPK1; details: at 10 µM
[9] = target: Serine/threonine-protein kinase 38-like (Homo sapiens) (UniProt Q9Y2H1); assay: Selectivity interaction (ActivX KiNativ screen (ex vivo kinase selectivity in human PBMCs)) EUB0001619a STK38L; type: cell-based; details: PBMC, at 1 µM
Serine/threonine-protein kinase 38-like (Homo sapiens), sequence (Q9Y2H1 2-464 limits assumed): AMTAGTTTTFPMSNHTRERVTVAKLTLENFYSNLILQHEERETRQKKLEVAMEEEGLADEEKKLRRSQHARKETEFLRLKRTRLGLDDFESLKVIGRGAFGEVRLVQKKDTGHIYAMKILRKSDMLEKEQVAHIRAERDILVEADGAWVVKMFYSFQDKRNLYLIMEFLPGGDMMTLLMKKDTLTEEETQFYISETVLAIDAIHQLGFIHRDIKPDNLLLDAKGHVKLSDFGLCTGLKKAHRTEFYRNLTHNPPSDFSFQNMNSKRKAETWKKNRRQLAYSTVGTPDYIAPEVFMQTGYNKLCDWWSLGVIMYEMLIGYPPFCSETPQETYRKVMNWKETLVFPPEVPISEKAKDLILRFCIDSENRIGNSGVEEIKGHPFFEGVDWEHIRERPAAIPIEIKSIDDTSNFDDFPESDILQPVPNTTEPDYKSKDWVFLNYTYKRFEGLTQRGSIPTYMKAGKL

[10] = target: Serine/threonine-protein kinase PAK 1 (Homo sapiens) (UniProt Q13153); assay: Selectivity interaction (KinomeScan (DiscoverX)) EUB0000695a PAK1; details: at 100 nM
[11] = target: Tyrosine-protein kinase FRK (Homo sapiens) (UniProt P42685); assay: Selectivity interaction (SelectScreen profiling (Invitrogen)) EUB0000607a FRK; details: at 2 µM
[12] = target: Serine/threonine-protein kinase pim-2 (Homo sapiens, UniProt Q9P1W9); assay: Selectivity interaction (Kinase panel (Z-LYTE Assay)) EUB0001632a PIM2; details: at 10 µM
Serine/threonine-protein kinase pim-2, sequence (Q9P1W9 whole entry, looked up): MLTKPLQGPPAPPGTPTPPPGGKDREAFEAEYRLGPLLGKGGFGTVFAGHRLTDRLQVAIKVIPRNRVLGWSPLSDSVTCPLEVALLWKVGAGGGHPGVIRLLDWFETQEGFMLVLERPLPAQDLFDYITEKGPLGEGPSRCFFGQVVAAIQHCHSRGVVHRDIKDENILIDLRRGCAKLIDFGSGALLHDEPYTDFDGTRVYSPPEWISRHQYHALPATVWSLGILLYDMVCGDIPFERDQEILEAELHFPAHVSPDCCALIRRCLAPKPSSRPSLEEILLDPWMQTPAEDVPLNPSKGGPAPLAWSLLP

[13] = target: T1, Cyclin-dependent kinase-like 5 (Homo sapiens) (UniProt O76039); assay: Selectivity interaction (Kinase panel (Z-LYTE Assay)) EUB0001632a CDKL5; details: at 10 µM
T1 sequence (whole entry): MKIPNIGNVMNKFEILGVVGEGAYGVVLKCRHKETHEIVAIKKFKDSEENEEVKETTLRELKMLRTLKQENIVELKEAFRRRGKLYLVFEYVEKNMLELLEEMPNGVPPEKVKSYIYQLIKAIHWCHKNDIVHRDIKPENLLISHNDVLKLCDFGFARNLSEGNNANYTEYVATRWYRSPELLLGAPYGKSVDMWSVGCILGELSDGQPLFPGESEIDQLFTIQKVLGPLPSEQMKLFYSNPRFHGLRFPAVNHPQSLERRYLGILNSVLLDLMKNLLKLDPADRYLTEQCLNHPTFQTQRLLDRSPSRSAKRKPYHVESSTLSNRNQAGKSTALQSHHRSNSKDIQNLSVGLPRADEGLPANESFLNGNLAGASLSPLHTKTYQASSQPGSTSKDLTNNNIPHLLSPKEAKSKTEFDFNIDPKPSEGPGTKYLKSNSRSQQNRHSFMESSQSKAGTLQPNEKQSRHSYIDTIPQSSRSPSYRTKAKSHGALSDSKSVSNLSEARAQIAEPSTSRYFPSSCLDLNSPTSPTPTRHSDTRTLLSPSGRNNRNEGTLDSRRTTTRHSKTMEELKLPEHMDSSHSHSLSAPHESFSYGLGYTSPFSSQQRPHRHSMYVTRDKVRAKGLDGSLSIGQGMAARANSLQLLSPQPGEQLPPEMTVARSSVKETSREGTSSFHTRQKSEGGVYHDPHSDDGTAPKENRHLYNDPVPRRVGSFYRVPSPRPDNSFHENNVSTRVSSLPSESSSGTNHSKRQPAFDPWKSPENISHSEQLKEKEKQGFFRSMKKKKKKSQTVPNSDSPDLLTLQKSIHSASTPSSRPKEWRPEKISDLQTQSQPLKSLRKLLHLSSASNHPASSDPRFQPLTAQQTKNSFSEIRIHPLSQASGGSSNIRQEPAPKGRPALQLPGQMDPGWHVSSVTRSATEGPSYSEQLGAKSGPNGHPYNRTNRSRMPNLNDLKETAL

[14] = target: T2, Serine/threonine-protein kinase DCLK2 (Homo sapiens) (UniProt Q8N568); assay: Selectivity interaction (Kinase panel (Z-LYTE Assay)) EUB0001632a DCLK2; details: at 10 µM
T2 sequence (whole entry): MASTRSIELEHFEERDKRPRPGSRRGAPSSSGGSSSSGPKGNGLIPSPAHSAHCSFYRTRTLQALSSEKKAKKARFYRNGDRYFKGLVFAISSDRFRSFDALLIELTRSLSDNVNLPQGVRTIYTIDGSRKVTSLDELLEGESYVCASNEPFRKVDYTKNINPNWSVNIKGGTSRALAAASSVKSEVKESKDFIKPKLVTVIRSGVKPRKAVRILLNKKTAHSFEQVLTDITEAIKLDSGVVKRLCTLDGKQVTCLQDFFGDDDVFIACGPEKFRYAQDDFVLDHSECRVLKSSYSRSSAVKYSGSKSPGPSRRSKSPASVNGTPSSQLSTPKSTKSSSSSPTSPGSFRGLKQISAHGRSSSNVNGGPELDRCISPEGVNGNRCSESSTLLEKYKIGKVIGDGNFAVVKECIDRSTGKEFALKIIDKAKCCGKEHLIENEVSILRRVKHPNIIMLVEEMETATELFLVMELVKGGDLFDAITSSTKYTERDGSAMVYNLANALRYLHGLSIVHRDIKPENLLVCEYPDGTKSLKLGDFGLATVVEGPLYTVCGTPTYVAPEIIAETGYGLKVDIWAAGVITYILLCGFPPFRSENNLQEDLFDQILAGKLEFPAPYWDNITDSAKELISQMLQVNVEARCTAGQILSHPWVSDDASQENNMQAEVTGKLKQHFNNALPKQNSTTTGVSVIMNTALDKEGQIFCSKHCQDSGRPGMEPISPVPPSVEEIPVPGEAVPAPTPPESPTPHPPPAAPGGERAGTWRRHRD

[15] = target: Tyrosine-protein kinase receptor UFO (Homo sapiens) (UniProt P30530); assay: Selectivity interaction (Rxn Biology Kinase assay) EUB0001632a AXL; details: at 10 µM
Tyrosine-protein kinase receptor UFO (Homo sapiens), sequence (P30530 whole entry): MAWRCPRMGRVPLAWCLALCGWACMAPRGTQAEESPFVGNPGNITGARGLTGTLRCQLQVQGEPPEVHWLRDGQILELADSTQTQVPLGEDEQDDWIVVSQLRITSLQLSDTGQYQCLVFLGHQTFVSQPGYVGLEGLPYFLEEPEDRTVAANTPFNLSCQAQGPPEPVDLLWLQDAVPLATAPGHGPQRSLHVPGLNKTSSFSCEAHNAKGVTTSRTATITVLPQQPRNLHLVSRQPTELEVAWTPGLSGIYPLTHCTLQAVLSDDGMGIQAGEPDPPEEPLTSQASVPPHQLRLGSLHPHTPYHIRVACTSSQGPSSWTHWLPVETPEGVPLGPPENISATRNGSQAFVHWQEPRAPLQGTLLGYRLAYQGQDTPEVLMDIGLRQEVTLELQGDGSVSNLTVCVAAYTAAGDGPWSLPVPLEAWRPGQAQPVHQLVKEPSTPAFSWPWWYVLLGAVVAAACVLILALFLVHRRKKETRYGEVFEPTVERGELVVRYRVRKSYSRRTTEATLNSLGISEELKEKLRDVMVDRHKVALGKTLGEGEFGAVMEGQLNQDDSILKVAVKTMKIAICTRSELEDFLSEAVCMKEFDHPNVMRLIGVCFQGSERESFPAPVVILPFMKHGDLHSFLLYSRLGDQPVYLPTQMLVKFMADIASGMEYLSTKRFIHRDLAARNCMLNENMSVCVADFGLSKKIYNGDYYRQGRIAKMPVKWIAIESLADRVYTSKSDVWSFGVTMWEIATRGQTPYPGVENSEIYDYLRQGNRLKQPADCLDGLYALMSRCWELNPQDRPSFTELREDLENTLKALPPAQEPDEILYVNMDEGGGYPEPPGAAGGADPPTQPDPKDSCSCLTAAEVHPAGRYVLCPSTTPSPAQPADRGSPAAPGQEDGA

Fibroblast growth factor receptor 2 (Homo sapiens), sequence (P21802 22-821 limits assumed): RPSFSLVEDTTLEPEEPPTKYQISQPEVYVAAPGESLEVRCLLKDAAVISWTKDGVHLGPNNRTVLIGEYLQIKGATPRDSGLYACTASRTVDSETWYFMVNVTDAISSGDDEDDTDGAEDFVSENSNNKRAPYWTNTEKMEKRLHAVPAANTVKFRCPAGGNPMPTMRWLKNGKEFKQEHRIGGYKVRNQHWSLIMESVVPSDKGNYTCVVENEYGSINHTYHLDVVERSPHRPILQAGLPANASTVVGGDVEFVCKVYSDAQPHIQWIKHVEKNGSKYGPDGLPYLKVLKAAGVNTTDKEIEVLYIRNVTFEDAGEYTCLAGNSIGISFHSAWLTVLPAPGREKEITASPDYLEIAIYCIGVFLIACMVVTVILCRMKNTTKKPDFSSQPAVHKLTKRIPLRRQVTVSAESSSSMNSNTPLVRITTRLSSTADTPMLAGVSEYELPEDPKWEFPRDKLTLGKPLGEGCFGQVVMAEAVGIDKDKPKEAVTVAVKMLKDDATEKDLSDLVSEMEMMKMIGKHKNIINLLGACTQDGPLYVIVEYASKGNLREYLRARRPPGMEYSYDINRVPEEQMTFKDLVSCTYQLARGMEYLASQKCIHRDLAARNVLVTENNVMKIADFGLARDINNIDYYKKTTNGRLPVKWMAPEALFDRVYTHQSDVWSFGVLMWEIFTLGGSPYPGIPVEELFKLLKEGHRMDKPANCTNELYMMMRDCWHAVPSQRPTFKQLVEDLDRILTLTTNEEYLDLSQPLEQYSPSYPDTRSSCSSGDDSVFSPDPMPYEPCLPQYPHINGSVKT
Tyrosine-protein kinase Fyn (Homo sapiens), sequence (P06241 2-537 limits assumed): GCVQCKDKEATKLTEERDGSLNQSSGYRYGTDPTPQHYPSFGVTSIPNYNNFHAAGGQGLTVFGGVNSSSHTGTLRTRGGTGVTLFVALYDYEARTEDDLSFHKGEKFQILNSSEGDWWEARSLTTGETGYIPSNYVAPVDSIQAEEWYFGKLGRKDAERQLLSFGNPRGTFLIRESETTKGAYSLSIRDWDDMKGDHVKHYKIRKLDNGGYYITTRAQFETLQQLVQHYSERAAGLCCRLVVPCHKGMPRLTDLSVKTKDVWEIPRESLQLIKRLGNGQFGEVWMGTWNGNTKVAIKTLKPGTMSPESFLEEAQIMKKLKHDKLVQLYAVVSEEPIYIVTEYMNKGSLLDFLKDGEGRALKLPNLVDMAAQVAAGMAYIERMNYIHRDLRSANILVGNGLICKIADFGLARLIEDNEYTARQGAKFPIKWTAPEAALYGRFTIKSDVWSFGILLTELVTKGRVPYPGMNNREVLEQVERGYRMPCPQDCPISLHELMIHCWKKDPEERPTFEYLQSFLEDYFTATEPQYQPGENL

Structure (SMILES): COc1cc(Nc2nc(C)cc(-c3cnn4nc(OC)ccc34)n2)cc(C(F)(F)F)c1
- % of control [1]: 90%

Structure (SMILES): Nc1cnc(N2CCc3cc(S(=O)(=O)Nc4c(F)cc(Cl)cc4F)cc(N4CCCC4=O)c32)nc1 [TP-020n]
- % of control [2]: 58%
- % of inhibition [3]: 18.2%

Structure (SMILES): CCC(=O)N1CC[C@H](Nc2ncnc3c2CN(c2cnc(OC)c(C(F)(F)F)c2)CC3)C1 [LENIOLISIB]
- IC50 (D(1A) dopamine receptor): > 30 µM

Structure (SMILES): CN(C(=O)c1cnn2cccnc12)c1cc2c(cc1N1CCOCC1)C(=O)N(C[C@@H](F)C(C)(C)O)C2
- dTM [4]: 0.1 K

Structure (SMILES): Cc1cc(CN)cc(C)c1-c1ncn(C)c1-c1cncn1C
- dTM [5]: -1.36 K

Structure (SMILES): CN(C)C/C=C/C(=O)Nc1ccc(C(=O)N2CCCC(Nc3ncc(Cl)c(-c4c[nH]c5ccccc45)n3)C2)cc1 (centres undefined)
- % of control [6]: 100%

Structure (SMILES): C=CC(=O)Nc1cc(-n2c(=O)ccc3cnc4ccc(-c5ccc(NS(C)(=O)=O)cc5)cc4c32)ccc1C
- % of control (SRSF protein kinase 1; at 1 µM): 78%
- % of control (SRSF protein kinase 1; at 10 µM): 100%
- % of control ([7]; at 1 µM): 100%
- % of control ([7]; at 10 µM): 100%

Structure (SMILES): O[C@H]1CC[C@H](Nc2ncc3nc(Nc4c(F)cc(F)cc4F)n([C@H]4CCOC4)c3n2)CC1
- % of control [8]: 93%

Structure (SMILES): N#Cc1cccc(-c2c[nH]c3ncnc(N4CCOCC4)c23)c1
- % of inhibition [9]: 3%

Structure (SMILES): Cc1cc(F)c(C(=O)Nc2cccc(-c3nncn3C(C)C)n2)cc1-n1cnc(C2CC2)c1
- % of control [10]: 100%

Structure (SMILES): CNC(=O)Nc1ccc(-c2nc(N3CC4CCC(C3)O4)c3cnn(C4CCC5(CC4)OCCO5)c3n2)cc1
- % of inhibition [11]: 3%

Structure (SMILES): Cn1cc(-n2cnc3c(NCc4nc5cc(Cl)c(Cl)cc5[nH]4)nc(N4CCOCC4)nc32)cn1
- % of control [12]: 0.824%
- % of control [13]: 4.16%
- % of control [14]: -1.8%
- % of inhibition [15]: 4.15%
